Experimental findings from patent US20060199240A1, “Biosensor and method comprising enzymes immobilized on semiconductors” (Yissum Research Development Company of the Hebrew …, priority 2002, published 2006) are described below.

Series [1] deals with acetylcholine esterase (AChE) (Electrophorus electricus, UniProt O42275). The format is biochemical.
Substrate in series [2]: CC(=O)SCC[N+](C)(C)C
The experiment in a line: KM of AChE towards acetylthiocholine in solution. Conditions: other: AChE in solution. Format: biochemical. The method, then: The KM value of the AChE linked to the CdS nanoparticles towards acetylthiocholine, (1), is KM=5 mM. This value is higher than the KM=0.13 mM of ACHE and (1) in solution. The higher KM value for the nanoparticle-immobilized ACHE may be attributed to slight deactivation and structural perturbation of the biocatalyst as a result of surface linkage.

acetylcholine esterase (AChE), sequence (O42275 24-633): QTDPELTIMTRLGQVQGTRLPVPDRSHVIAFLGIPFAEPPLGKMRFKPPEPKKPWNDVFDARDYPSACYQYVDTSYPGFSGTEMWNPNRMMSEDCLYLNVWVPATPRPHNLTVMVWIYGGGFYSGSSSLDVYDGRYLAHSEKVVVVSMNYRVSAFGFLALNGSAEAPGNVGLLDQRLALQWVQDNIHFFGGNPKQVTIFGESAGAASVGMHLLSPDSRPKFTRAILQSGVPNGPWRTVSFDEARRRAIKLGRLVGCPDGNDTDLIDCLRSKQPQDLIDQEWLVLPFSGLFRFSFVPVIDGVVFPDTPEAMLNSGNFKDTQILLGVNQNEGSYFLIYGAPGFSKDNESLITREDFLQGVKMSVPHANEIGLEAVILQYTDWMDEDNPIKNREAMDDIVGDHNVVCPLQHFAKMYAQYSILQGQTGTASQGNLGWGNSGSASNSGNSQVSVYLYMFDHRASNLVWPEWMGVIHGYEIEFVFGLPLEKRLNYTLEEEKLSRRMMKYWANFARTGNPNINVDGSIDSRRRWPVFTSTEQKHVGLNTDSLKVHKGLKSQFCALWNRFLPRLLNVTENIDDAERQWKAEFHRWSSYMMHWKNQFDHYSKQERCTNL

For `C=CC[N+](C)(C)c1ccc(CCC(=O)CCc2ccc([N+](C)(C)CC=C)cc2)cc1` [(3), 1,5-bis(4-allyldimethylammoniumphenyl)pentane-3-one dibromide], in series [1], the “effect on photocurrent with increasing concentration” value is “decreases the photocurrent”, the mode of inhibition result is recorded as “competitive inhibitor” and the “reversibility: photocurrent after washing off the inhibitor” value was “almost restores the initial photocurrent”.

B1: AChE (Homo sapiens) (protein)
chain: EGREDAELLVTVRGGRLRGIRLKTPGGPVSAFLGIPFAEPPMGPRRFLPPEPKQPWSGVVDATTFQSVCYQYVDTLYPGFEGTEMWNPNRELSEDCLYLNVWTPYPRPTSPTPVLVWIYGGGFYSGASSLDVYDGRFLVQAERTVLVSMNYRVGAFGFLALPGSREAPGNVGLLDQRLALQWVQENVAAFGGDPTSVTLFGESAGAASVGMHLLSPPSRGLFHRAVLQSGAPNGPWATVGMGEARRRATQLAHLVGCPPGGTGGNDTELVACLRTRPAQVLVNHEWHVLPQESVFRFSFVPVVDGDFLSDTPEALINAGDFHGLQVLVGVVKDEGSYFLVYGAPGFSKDNESLISRAEFLAGVRVGVPQVSDLAAEAVVLHYTDWLHPEDPARLREALSDVVGDHNVVCPVAQLAGRLAAQGARVYAYVFEHRASTLSWPLWMGVPHGYEIEFIFGIPLDPSRNYTAEEKIFAQRLMRYWANFARTGDPNEPRDPKAPQWPPYTAGAQQYVSLDLRPLEVRRGLRAQACAFWNRFLPKLLSATDTLDEAERQWKAEFHRWSSYMVHWKNQFDHYSKQDRCSDL
Regarding B1, in series [2], the Km is 130 µM.
